pEC50: −log10 of the molar value. Values belong to the molecule of their own block, whether it stands above or below them. No end group written: not given here.
Columns and labels:
NK1R WT (human TACR1) [1] = molecular target: T1, NK1R WT (human TACR1) (Homo sapiens, UniProt P25103); experiment: BRET-based cAMP assay (Gs activation), NK1R; assay type: cell-based; conditions: for pEC50: given as log(EC50), transfected COS7 cells, three independent experiments in duplicates; for EC50: read-out: log(EC50), cAMP - NK1R WT (converted)
T1 construct: host or cells: COS7 cells, transient calcium-precipitation transfection
T1 sequence (P25103 whole entry): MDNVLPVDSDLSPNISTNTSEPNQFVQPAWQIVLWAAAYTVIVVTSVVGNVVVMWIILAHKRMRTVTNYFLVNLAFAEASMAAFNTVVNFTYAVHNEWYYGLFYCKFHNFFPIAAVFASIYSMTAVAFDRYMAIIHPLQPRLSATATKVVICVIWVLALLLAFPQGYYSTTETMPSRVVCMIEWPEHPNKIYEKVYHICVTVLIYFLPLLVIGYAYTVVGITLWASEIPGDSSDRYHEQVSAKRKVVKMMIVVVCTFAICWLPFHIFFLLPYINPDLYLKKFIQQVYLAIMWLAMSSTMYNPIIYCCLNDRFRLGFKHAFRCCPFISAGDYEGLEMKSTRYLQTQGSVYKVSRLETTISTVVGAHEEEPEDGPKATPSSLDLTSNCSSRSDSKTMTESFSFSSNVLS
Method: (§1) All receptor constructs of WT and modified human TACR1 and TACR2 were inserted into the pcDNA3.1(+)-C-DYK vector (Genscript) whereas CAMYEL ([34]) was expressed via pcDNA3.1(+) vector.
COS7 cells were maintained in Dulbecco's modified Eagle's medium 1885 with GlutaMAX supplemented with 10% fetal bovine serum (Sigma-Aldrich), 100 units/ml penicillin and 100 μg/ml streptomycin at 37 °C with 10% CO2. […] COS7 cells were plated in either clear- or white- or white with clear bottom 96-well plates that were coated with poly-D-lysine (Sigma-Aldrich) 30 min prior to cell seeding (20.000 cells/well). The following day plates were transiently transfected using calcium precipitation with 200 ng/well DNA of receptor DNA and for the cAMP assays a 1000 ng/well of CAMYEL in a culture medium with the addition of 100 μM (final concentration) chloroquine. Transfection was stopped 5 h later with the addition of a fresh maintenance medium.
(§2) The intracellular level of cAMP was monitored in real-time using BRET. This was achieved by implementing a construct consisting of a cAMP binding protein (exchange protein activated by cAMP (EPAC)) which has been flanked by a BRET pair consisting of Renilla luciferase (Rluc) and yellow fluorescent protein (YFP). This construct is called CAMYEL (cAMP sensor using YFP-Epac-Rluc) and enables cAMP production to be sensed as Epac change conformations in response to increasing levels of cAMP, ultimately resulting in a loss of BRET signal.
On the day of the assay, white 96-well plates with COS7 cells were washed twice with 100 μl/well Hank’s balanced salt solution (HBSS) (GIBCO, Life Technologies) and preincubated for 30 min at 37 °C with 85 μl HBSS. Luciferase substrate coelenterazine h (Thermo Fisher Scientific) was added to a final concentration of 5 μM, and a baseline measurement was taken after 5 min. […] The BRET signal was calculated as the ratio of emission intensity at 535 nm (citrine) to the emission intensity at 475 nm (luciferase). Determinations were made in minimum duplicates.
(§3) In both assay formats, the measurement window could shift between runs without affecting the overall curve shape. Emax and Emin values often shifted uniformly upward or downward, while the sigmoidal profile remained consistent, contributing to increased standard deviation.
All concentration-response curves have been calculated using Prism 10 software (GraphPad Software, www.graphpad.com) nonlinear regression with four parameters. SD is used for concentration-response curves to illustrate variability in experimental measurements. However, when comparing LogEC50 values, standard error of the mean (SEM) is used to reflect the precision of the estimated means and facilitate statistical comparisons. […] All data consist of two technical replicates from three biological replicates. Statistical significance of differences between LogEC50 values (based on SEM estimates) was assessed using an unpaired two-tailed t test. Normal distribution of LogEC50 values was confirmed by the Shapiro–Wilk test. p-Values were represented using asterisks: ns for p > 0.05 (not significant), ∗ for p ≤ 0.05, ∗∗ for p ≤ 0.01, ∗∗∗ for p ≤ 0.001, and ∗∗∗∗ for p ≤ 0.0001.

NK1R WT (human TACR1) [2] = molecular target: T1, NK1R WT (human TACR1); experiment: IP3 accumulation assay (Gq activation), NK1R; assay type: cell-based; conditions: for pEC50: given as log(EC50), transfected COS7 cells, three independent experiments in duplicates; for EC50: read-out: log(EC50), IP3 - NK1R WT (converted)
Method: (§4) COS7 cells were plated in either clear- or white- or white with clear bottom 96-well plates that were coated with poly-D-lysine (Sigma-Aldrich) 30 min prior to cell seeding (20.000 cells/well). The following day plates were transiently transfected using calcium precipitation with 200 ng/well DNA of receptor DNA and for the cAMP assays a 1000 ng/well of CAMYEL in a culture medium with the addition of 100 μM (final concentration) chloroquine. Transfection was stopped 5 h later with the addition of a fresh maintenance medium.
(§5) COS7 cells seeded in clear 96-well plates were incubated with 0.5 μCi/ml myo [3H]inositol (PerkinElmer) in 100 μl growth medium overnight following the transfection. The subsequent day cells were washed twice with 200 μl/well HBSS (GIBCO, Life Technologies) and preincubated for 5 min at 37 °C with 100 μl/well HBSS buffer supplemented with 10 mM LiCl. Ligand addition was followed by 90 min incubation at 37 °C. To stop ligand incubation, cells were lysed with 40 μl 10 mM formic acid followed by 30 min incubation on ice. Subsequently, 35 μl of the lysate was transferred to white 96-well plates together with 60 μl of 1:8 diluted YSi SPA scintillation beads (PerkinElmer). Plates were sealed and vigorously shaken for 15 min followed by 5 min centrifugation at 1500 rpm. Measurements (scintillation) were recorded on a MicroBeta (PerkinElmer) after a 4 h delay, and determinations were made in duplicates.
as §3
(§6) All concentration-response curves have been calculated using Prism 10 software (GraphPad Software, www.graphpad.com) nonlinear regression with four parameters. SD is used for concentration-response curves to illustrate variability in experimental measurements. However, when comparing LogEC50 values, standard error of the mean (SEM) is used to reflect the precision of the estimated means and facilitate statistical comparisons. This approach ensures an accurate representation of variability while maintaining appropriate statistical rigor for hypothesis testing. All data consist of two technical replicates from three biological replicates. Statistical significance of differences between LogEC50 values (based on SEM estimates) was assessed using an unpaired two-tailed t test. Normal distribution of LogEC50 values was confirmed by the Shapiro–Wilk test. p-Values were represented using asterisks: ns for p > 0.05 (not significant), ∗ for p ≤ 0.05, ∗∗ for p ≤ 0.01, ∗∗∗ for p ≤ 0.001, and ∗∗∗∗ for p ≤ 0.0001.

NK2R WT (human TACR2) [3] = molecular target: T2, NK2R WT (human TACR2) (Homo sapiens, UniProt P21452); experiment: BRET-based cAMP assay (Gs activation), NK2R; assay type: cell-based; conditions: for EC50: given as log(EC50), transfected COS7 cells, three independent experiments in duplicates, read-out: log(EC50), cAMP - NK2R WT (converted)
T2 construct: host or cells: COS7 cells, transient calcium-precipitation transfection
T2 sequence (P21452 1-398): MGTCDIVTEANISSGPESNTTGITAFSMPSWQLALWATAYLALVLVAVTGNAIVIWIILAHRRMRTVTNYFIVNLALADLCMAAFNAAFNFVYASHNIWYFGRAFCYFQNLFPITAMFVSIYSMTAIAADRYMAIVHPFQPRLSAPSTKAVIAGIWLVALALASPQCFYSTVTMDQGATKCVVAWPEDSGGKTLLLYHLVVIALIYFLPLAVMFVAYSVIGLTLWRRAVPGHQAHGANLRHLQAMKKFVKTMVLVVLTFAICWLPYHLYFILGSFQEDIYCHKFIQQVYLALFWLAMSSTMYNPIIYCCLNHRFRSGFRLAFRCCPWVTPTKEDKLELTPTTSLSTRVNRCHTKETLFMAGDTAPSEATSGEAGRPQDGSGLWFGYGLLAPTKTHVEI
Method: as §1
COS7 cells were tested monthly for mycoplasma and kept negative. COS7 cells were plated in either clear- or white- or white with clear bottom 96-well plates that were coated with poly-D-lysine (Sigma-Aldrich) 30 min prior to cell seeding (20.000 cells/well). The following day plates were transiently transfected using calcium precipitation with 200 ng/well DNA of receptor DNA and for the cAMP assays a 1000 ng/well of CAMYEL in a culture medium with the addition of 100 μM (final concentration) chloroquine. Transfection was stopped 5 h later with the addition of a fresh maintenance medium.
as §2
On the day of the assay, white 96-well plates with COS7 cells were washed twice with 100 μl/well Hank’s balanced salt solution (HBSS) (GIBCO, Life Technologies) and preincubated for 30 min at 37 °C with 85 μl HBSS. Luciferase substrate coelenterazine h (Thermo Fisher Scientific) was added to a final concentration of 5 μM, and a baseline measurement was taken after 5 min. […] Determinations were made in minimum duplicates.
as §3, §6

NK2R WT (human TACR2) [4] = molecular target: T2, NK2R WT (human TACR2); experiment: IP3 accumulation assay (Gq activation), NK2R; assay type: cell-based; conditions: for EC50: Fig. 6B, given as log(EC50), transfected COS7 cells, three independent experiments in duplicates, read-out: log(EC50), IP3 - NK2R WT (converted)
Method: as §4, §5, §3, §6

[5] = tested on: NK1R-R177 mutated to alanine; conditions: NK1R-R177 to alanine vs WT; cited from earlier work
[6] = tested on: NK1R-R177 mutated to lysine; conditions: NK1R-R177 to lysine vs WT; cited from earlier work
[7] = tested on: NK1R-Q24 mutated to asparagine; conditions: NK1R-Q24 to asparagine vs WT; cited from earlier work
NK1R [8] = conditions: cited from earlier work
NK1R [9] = conditions: cited from earlier work; remark: listed apart in the source
[10] = Fig. 2C, analogs with free N termini
[11] = Fig. 2D, analogs with free N termini

- pEC50 (NK1R WT (human TACR1) [1]; [10]): 8.10
- pEC50 (NK1R WT (human TACR1) [2]; [11]): 8.30
Molecule: QQFFGLM-NH2 [QQFFGLM-NH2]

- EC50 (NK1R WT (human TACR1) [1]): 200 nM
- EC50 (NK1R WT (human TACR1) [2]): 7.94 nM
- EC50 (NK2R WT (human TACR2) [3]; Fig. 6A): 316 nM
- EC50 (NK2R WT (human TACR2) [4]): 50.1 nM
Molecule: Ac-SFVGLM-NH2 [Ac-SFVGLM-NH2]

- EC50 (NK2R WT (human TACR2) [3]; Fig. 6A): 50.1 nM
- EC50 (NK2R WT (human TACR2) [4]): 20 nM
Molecule: CSCC[C@H](NC(=O)[C@H](CC(C)C)NC(=O)CNC(=O)[C@@H](NC(=O)[C@H](Cc1ccccc1)NC(=O)[C@H](CO)NC(=O)[C@H](CC(=O)O)NC(C)=O)C(C)C)C(N)=O [Ac-DSFVGLM-NH2]

- EC50 (NK1R WT (human TACR1) [1]): 316 nM
- EC50 (NK1R WT (human TACR1) [2]): 50.1 nM
- EC50 (NK2R WT (human TACR2) [3]; Fig. 6A): 1580 nM
- EC50 (NK2R WT (human TACR2) [4]): 200 nM
Molecule: SFVGLM-NH2 [SFVGLM-NH2]

Molecule: CSCC[C@H](NC(=O)[C@H](CC(C)C)NC(=O)CNC(=O)[C@H](Cc1ccccc1)NC(=O)[C@H](Cc1ccccc1)NC(=O)[C@H](CCC(N)=O)NC(=O)[C@H](CCC(N)=O)NC(=O)[C@@H]1CCCN1C(=O)[C@H](CCCCN)NC(=O)[C@@H]1CCCN1C(=O)[C@@H](N)CCCNC(=N)N)C(N)=O [SP, substance P]
- reduction of binding affinity for SP (factor) [5]: 46
- reduction of binding affinity for SP (factor) [6]: 60
- reduction of binding affinity for SP (factor) [7]: five

Molecule: CSCC[C@H](NC(=O)[C@H](CC(C)C)NC(=O)CNC(=O)[C@@H](NC(=O)[C@H](Cc1ccccc1)NC(=O)[C@H](CO)NC(=O)[C@@H](N)CC(=O)O)C(C)C)C(N)=O [DSFVGLM-NH2]
- pEC50 (NK2R WT (human TACR2) [3]): 8.00
- increase in Gs potency compared to acetylated counterpart (NK2R WT (human TACR2) [3]; NK2R, Fig. 6A, analog with a free N terminal): five
- pEC50 (NK2R WT (human TACR2) [4]): 8.00

- pEC50 (NK1R WT (human TACR1) [1]; Fig. 2A, acetylated analogs): 8.90
- EC50 (NK1R WT (human TACR1) [2]): 3.16 nM
Molecule: Ac-QQFFGLM-NH2 [Ac-QQFFGLM-NH2]

- pEC50 (NK1R WT (human TACR1) [1]; Fig. 2A, acetylated analogs): 8.40
- reduction in Gs potency (NK1R WT (human TACR1) [1]; NK1R, relative to SP): 5.0 fold
- EC50 (NK1R WT (human TACR1) [2]): 1.58 nM
Molecule: Ac-QFFGLM-NH2 [Ac-QFFGLM-NH2]

- pEC50 (NK1R WT (human TACR1) [1]; [10]): 7.80
- pEC50 (NK1R WT (human TACR1) [2]; [11]): 7.90
- pEC50 (NK1R WT (human TACR1) [2]; Fig. 5A, Gq activation): 7.70
- lower Gq potency (NK1R WT (human TACR1) [2]; NK1R, Fig. 5A, compared with acetylated analog and SP): 15 fold
Molecule: QFFGLM-NH2 [QFFGLM-NH2]
- activity in IP3 accumulation assay (Gq) compared to SP (NK1R [8]): half activity
- lower activity in BRET-based cAMP assay (Gs) compared to SP (NK1R [9]): 16 fold

— PMC12145819, “Challenging activity and signaling bias in tachykinin NK1 and NK2 receptors by truncated neuropeptides” (The Journal of Biological Chemistry, 2025)
